Laboratory results taken from patent US20100298141A1, “SUBSTITUTED PYRIDINE N-OXIDE HERBICIDES” (E. I. DU PONT DE NEMOURS AND COMPANY, priority 2007, published 2010).

Columns and labels:
barnyardgrass [1] = assay: Test A pre-/postemergence greenhouse test; assay type: in vivo, Echinochloa crus-galli; conditions: for Plant response rating, Barnyardgrass: 0 to 100 scale where 0 is no effect and 100 is complete control; for Barnyardgrass plant response rating: 0 to 100 scale
Summary of the method: (§1)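 Visual injury ratings, made relative to untreated controls roughly ten days after treatment, cover both preemergence and postemergence application. Compounds in a surfactant-containing non-phytotoxic solvent were sprayed onto the soil surface after sowing and, simultaneously, onto young plants at the one- to two-leaf stage.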

crabgrass = assay: Test A pre-/postemergence greenhouse test; assay type: in vivo, Digitaria sanguinalis; conditions: for Plant response rating, Crabgrass, Large: 0 to 100 scale where 0 is no effect and 100 is complete control; for Crabgrass, Large plant response rating: 0 to 100 scale
Summary of the method: as §1

giant foxtail = assay: Test A pre-/postemergence greenhouse test; assay type: in vivo, Setaria faberi; conditions: for Plant response rating, Foxtail, Giant: 0 to 100 scale where 0 is no effect and 100 is complete control; for Foxtail, Giant plant response rating: 0 to 100 scale
Summary of the method: as §1

velvetleaf [2] = assay: Test A pre-/postemergence greenhouse test; assay type: in vivo, Abutilon theophrasti; conditions: for Plant response rating, Velvetleaf: 0 to 100 scale where 0 is no effect and 100 is complete control; for Velvetleaf plant response rating: 0 to 100 scale
Summary of the method: as §1

blackgrass = assay: Test C pre-/postemergence test; assay type: in vivo, Alopecurus myosuroides
Summary of the method: (§2)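 Compounds in a non-phytotoxic solvent with surfactant applied preemergence to seeded pots and, at the same time, postemergence to plants 2–18 cm tall (1- to 4-leaf stage). Paddy tests: pots flooded to 3 cm, compound applied into the water, depth held throughout.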

downy brome = assay: Test C pre-/postemergence test; assay type: in vivo, Bromus tectorum
Summary of the method: as §2

green foxtail = assay: Test C pre-/postemergence test; assay type: in vivo, Setaria viridis
Summary of the method: as §2

catchweed bedstraw = assay: Test C pre-/postemergence test; assay type: in vivo, Galium aparine
Summary of the method: as §2

Surinam grass = assay: Test C pre-/postemergence test; assay type: in vivo, Brachiaria decumbens
Summary of the method: as §2

woolly cupgrass = assay: Test C pre-/postemergence test; assay type: in vivo, Eriochloa villosa
Summary of the method: as §2

lambsquarters = assay: Test C pre-/postemergence test; assay type: in vivo, Chenopodium album
Summary of the method: as §2

pigweed = assay: Test C pre-/postemergence test; assay type: in vivo, Amaranthus retroflexus
Summary of the method: as §2

common ragweed = assay: Test C pre-/postemergence test; assay type: in vivo, Ambrosia elation
Summary of the method: as §2

soybean = assay: Test C pre-/postemergence test; assay type: in vivo, Glycine max
Summary of the method: as §2

velvetleaf [3] = assay: Test C pre-/postemergence test; assay type: in vivo, Abutilon theophrasti
Summary of the method: as §2

duck salad = assay: Test C flooded paddy test; assay type: in vivo, Heteranthera limosa; conditions: Flood
Summary of the method: (§3)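 Test compounds are applied straight into paddy water held 3 cm above the soil surface, with that flood maintained for the whole test. After 13 to 15 days in the greenhouse, each species is scored visually relative to controls.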

barnyardgrass [4] = assay: Test C flooded paddy test; assay type: in vivo, Echinochloa crus-galli; conditions: Flood
Summary of the method: as §3

[5] = Postemergence, 500 g ai/ha, 0 is no effect, 100 is complete control
[6] = Preemergence, 125 g ai/ha, 0 no effect, 100 complete control
[7] = 62 g ai/ha, Preemergence, scale 0 to 100
[8] = 125 g ai/ha, preemergence, scale 0 (no effect) to 100 (complete control)
[9] = Postemergence, 62 g ai/ha, scale 0 to 100, 0 no effect, 100 complete control
[10] = Postemergence, 125 g ai/ha, scale 0 to 100, 0 no effect, 100 complete control
[11] = Postemergence, 250 g ai/ha, scale 0 to 100, 0 no effect, 100 complete control
[12] = Preemergence, 31 g ai/ha, scale 0 to 100 (0 no effect, 100 complete control)
[13] = preemergence, 250 g ai/ha, scale 0 (no effect) to 100 (complete control)
[14] = 62 g ai/ha, scale 0 to 100 (0 no effect, 100 complete control)
[15] = 250 g ai/ha, scale 0 to 100, 0 no effect, 100 complete control, 13 to 15 days

Cn1nc(C(F)(F)F)c(C[S+]([O-])c2ccc(F)c[n+]2[O-])c1OC(F)F (centres unmarked) [Compound 58]
Plant response rating, Barnyardgrass (barnyardgrass [1]; Postemergence, 125 g ai/ha): 80
Barnyardgrass plant response rating (barnyardgrass [1]; [5]): 90
Barnyardgrass plant response rating (barnyardgrass [1]; [6]): 90
Plant response rating, Barnyardgrass (barnyardgrass [1]; Preemergence, 500 g ai/ha): 90
Plant response rating, Crabgrass, Large (crabgrass; Postemergence, 125 g ai/ha): 80
Crabgrass, Large plant response rating (crabgrass; [5]): 90
Crabgrass, Large plant response rating (crabgrass; [6]): 80
Plant response rating, Crabgrass, Large (crabgrass; Preemergence, 500 g ai/ha): 100
Plant response rating, Foxtail, Giant (giant foxtail; Postemergence, 125 g ai/ha): 90
Foxtail, Giant plant response rating (giant foxtail; [5]): 90
Foxtail, Giant plant response rating (giant foxtail; [6]): 100
Plant response rating, Foxtail, Giant (giant foxtail; Preemergence, 500 g ai/ha): 100
Plant response rating, Velvetleaf (velvetleaf [2]; Postemergence, 125 g ai/ha): 60
Velvetleaf plant response rating (velvetleaf [2]; [5]): 80
Velvetleaf plant response rating (velvetleaf [2]; [6]): 60
Plant response rating, Velvetleaf (velvetleaf [2]; Preemergence, 500 g ai/ha): 100
Blackgrass plant response rating (blackgrass; [7]): 98
Blackgrass plant response rating (blackgrass; [8]): 100
Plant response rating (0 to 100), Blackgrass (blackgrass; Postemergence, 31 g ai/ha): 0
Plant response rating, Blackgrass (blackgrass; [9]): 0
Plant response rating, Blackgrass (blackgrass; [10]): 30
Plant response rating, Blackgrass (blackgrass; [11]): 80
Plant response rating, Blackgrass (blackgrass; [12]): 98
Blackgrass plant response rating (blackgrass; [13]): 100
Bromegrass, Downy plant response rating (downy brome; [7]): 60
Bromegrass, Downy plant response rating (downy brome; [8]): 100
Plant response rating (0 to 100), Bromegrass, Downy (downy brome; Postemergence, 31 g ai/ha): 0
Plant response rating, Bromegrass, Downy (downy brome; [9]): 0
Plant response rating, Bromegrass, Downy (downy brome; [10]): 0
Plant response rating, Bromegrass, Downy (downy brome; [11]): 60
Plant response rating, Bromegrass, Downy (downy brome; [12]): 0
Bromegrass, Downy plant response rating (downy brome; [13]): 100
Foxtail, Green plant response rating (green foxtail; [7]): 98
Foxtail, Green plant response rating (green foxtail; [8]): 100
Plant response rating (0 to 100), Foxtail, Green (green foxtail; Postemergence, 31 g ai/ha): 0
Plant response rating, Foxtail, Green (green foxtail; [9]): 25
Plant response rating, Foxtail, Green (green foxtail; [10]): 50
Plant response rating, Foxtail, Green (green foxtail; [11]): 80
Plant response rating, Foxtail, Green (green foxtail; [12]): 70
Foxtail, Green plant response rating (green foxtail; [13]): 100
Galium plant response rating (catchweed bedstraw; [7]): 70
Galium plant response rating (catchweed bedstraw; [8]): 100
Plant response rating, Galium (catchweed bedstraw; [12]): 0
Galium plant response rating (catchweed bedstraw; [13]): 100
Surinam Grass plant response rating (Surinam grass; [7]): 80
Surinam Grass plant response rating (Surinam grass; [8]): 85
Plant response rating (0 to 100), Surinam Grass (Surinam grass; Postemergence, 31 g ai/ha): 0
Plant response rating (0 to 100), Surinam Grass (Surinam grass; Postemergence, 62 g ai/ha): 0
Plant response rating, Surinam Grass (Surinam grass; [10]): 10
Plant response rating, Surinam Grass (Surinam grass; [11]): 45
Plant response rating, Surinam Grass (Surinam grass; [12]): 70
Surinam Grass plant response rating (Surinam grass; [13]): 100
Cupgrass, Woolly plant response rating (woolly cupgrass; [7]): 60
Cupgrass, Woolly plant response rating (woolly cupgrass; [8]): 95
Plant response rating (0 to 100), Cupgrass, Woolly (woolly cupgrass; Postemergence, 31 g ai/ha): 0
Plant response rating, Cupgrass, Woolly (woolly cupgrass; [9]): 0
Plant response rating, Cupgrass, Woolly (woolly cupgrass; [10]): 10
Plant response rating, Cupgrass, Woolly (woolly cupgrass; [11]): 80
Plant response rating, Cupgrass, Woolly (woolly cupgrass; [12]): 10
Cupgrass, Woolly plant response rating (woolly cupgrass; [13]): 100
Lambsquarters plant response rating (lambsquarters; [7]): 100
Lambsquarters plant response rating (lambsquarters; [8]): 100
Plant response rating (0 to 100), Lambsquarters (lambsquarters; Postemergence, 31 g ai/ha): 0
Plant response rating, Lambsquarters (lambsquarters; [9]): 0
Plant response rating, Lambsquarters (lambsquarters; [10]): 0
Plant response rating, Lambsquarters (lambsquarters; [11]): 30
Plant response rating, Lambsquarters (lambsquarters; [12]): 70
Lambsquarters plant response rating (lambsquarters; [13]): 100
Pigweed plant response rating (pigweed; [7]): 100
Pigweed plant response rating (pigweed; [8]): 100
Plant response rating (0 to 100), Pigweed (pigweed; Postemergence, 31 g ai/ha): 0
Plant response rating (0 to 100), Pigweed (pigweed; Postemergence, 62 g ai/ha): 0
Plant response rating, Pigweed (pigweed; [10]): 5
Plant response rating, Pigweed (pigweed; [11]): 10
Plant response rating, Pigweed (pigweed; [12]): 100
Pigweed plant response rating (pigweed; [13]): 100
Ragweed plant response rating (common ragweed; [7]): 30
Ragweed plant response rating (common ragweed; [8]): 55
Plant response rating (0 to 100), Ragweed (common ragweed; Postemergence, 31 g ai/ha): 0
Plant response rating (0 to 100), Ragweed (common ragweed; Postemergence, 62 g ai/ha): 0
Plant response rating, Ragweed (common ragweed; [10]): 0
Plant response rating, Ragweed (common ragweed; [11]): 30
Plant response rating, Ragweed (common ragweed; [12]): 30
Ragweed plant response rating (common ragweed; [13]): 100
Soybean plant response rating (soybean; [7]): 100
Soybean plant response rating (soybean; [8]): 100
Plant response rating (0 to 100), Soybean (soybean; Postemergence, 31 g ai/ha): 20
Plant response rating (0 to 100), Soybean (soybean; Postemergence, 62 g ai/ha): 40
Plant response rating, Soybean (soybean; [10]): 60
Plant response rating, Soybean (soybean; [11]): 65
Plant response rating, Soybean (soybean; [12]): 0
Soybean plant response rating (soybean; [13]): 100
Velvetleaf plant response rating (velvetleaf [3]; [7]): 75
Velvetleaf plant response rating (velvetleaf [3]; [8]): 100
Plant response rating (0 to 100), Velvetleaf (velvetleaf [3]; Postemergence, 31 g ai/ha): 0
Plant response rating (0 to 100), Velvetleaf (velvetleaf [3]; Postemergence, 62 g ai/ha): 0
Plant response rating, Velvetleaf (velvetleaf [3]; [10]): 5
Plant response rating, Velvetleaf (velvetleaf [3]; [11]): 5
Plant response rating, Velvetleaf (velvetleaf [3]; [12]): 5
Velvetleaf plant response rating (velvetleaf [3]; [13]): 100
Plant response rating, Ducksalad (duck salad; [14]): 70
Plant response rating, Ducksalad (duck salad; [15]): 80
Plant response rating, Barnyardgrass (barnyardgrass [4]; [14]): 65
Plant response rating, Barnyardgrass (barnyardgrass [4]; [15]): 85
